Assay results as given in patent US11999728B2, “Estrogen receptor modulators” (Recurium IP Holdings, LLC, priority 2020, dated 2024).
Each block holds one compound with its values, some of them ahead of it.

Assays:
MCF7 = assay: Breast Cancer Cell Proliferation Assay (MCF-7), Cell Titer-Glo; type: cell-based; settings: Homo sapiens, MCF7, 120 h, MCF7 cells, 5 days of compound exposure
Method: Breast Cancer Cell Proliferation Assay (MCF-7)
MCF7 was expanded and maintained in the medium (Phenol red free DMEM/F12 (Hyclone SH30272.01) NEAA (Gibco11140-050) Na-pyruvate (Gibco 11360-070) and Re-stripped Charcoal stripped FBS (Gemini 100-119)). The cells were adjusted to a concentration of 3,000 cells per mL in the above media, and the cells were incubated (37° C., 5% CO2). The following day a 10-point, serial dilution of compounds was added to the cells at a final concentration ranging from 10-0.000005 μM for test compounds (17β-estradiol was used as a control). Additional cells were plated in 30 wells to serve as the day 1 (pretreatment) comparison. After 5 days of compound exposure, Cell Titer-Glo reagent was added to the cells and the relative luminescence units (RLUs) of each well was determined. Cell Titer-Glo was also added to 32 μL of medium without cells to obtain a background value. The plates were allowed to incubate at room temperature for 10 minutes to stabilize luminescent signal and the luminescence signal was recorded with EnSpire. The relative increase in cell number of each sample is determined as follows: (RLU sample-RLU background/RLU estrogen only treated cells-RLU background)×100=% inhibition.

[1] = Pharmacokinetic Determination (Mouse PK); type: in vivo, female CD-1 mice; settings: female; for Kp at 2 h: CD-1, PO 10.0 mg/kg, Brain concentration vs plasma concentration at 2 hours post dosing, read-out: B/P ratio; for AUC(0-t) / clearance / half-life / Vd / bioavailability / Cmax / Tmax: CD-1, plasma; for Vd: read-out: Vdss; for bioavailability: PO 10.0 mg/kg vs IV 3.0 mg/kg
Method: Pharmacokinetic Determination
Grouping female CD-1 mice weighing 20-30 g randomly to three groups; one group was administered with test compound at a dose of 3.0 mg/kg by intravenous injection, the other two groups were administered with test compound at a dose of 10.0 mg/kg by oral. The formulation for IV groups is DMSO/PEG400/30% HP-β-CD (5/20/75) and the formulation for PO groups is 25% HP-β-CD in 25 mM citrate buffer (pH3.0). After administering, blood samples of intravenous injection group were collected at time points of predose, 0.0833, 0.25, 0.5, 1, 2, 4, 8, 12 and 24 h; blood samples of oral group were collected at time points of predose, 0.25, 0.5, 1, 2, 4, 8, 12, and 24 h. Both blood samples and brain samples were collected at 2 hours post dosing for the second PO group. Standard curve was plotted based on concentrations of the samples in a suitable range, the concentrations of test compounds in plasma samples and brain samples were determined by using LC-MS/MS. Pharmacokinetic parameters were calculated according to drug concentration-time curve using a noncompartmental method by WinNonLin (Phoenix™, version 6.1) or other similar software.

Compound: C[C@@H]1Cc2c([nH]c3ccccc23)[C@@H](c2ccc(O[C@H]3CCN(CCCF)C3)nc2)N1C12CC(C1)C2 (single isomer, unassigned) [Compound 10]
IC50 (MCF7): ≤ 25 nM
Kp at 2 h [1]: 7.51
AUC(0-t) ([1]; IV, 3.0 mg/kg): 1.03 µM·h
clearance ([1]; IV, 3.0 mg/kg): 101 mL/min/kg
half-life ([1]; IV, 3.0 mg/kg): 2.19 h
Vd ([1]; IV, 3.0 mg/kg): 12.8 L/kg
bioavailability [1]: 15.3%
AUC(0-t) ([1]; PO, 10.0 mg/kg): 0.527 µM·h
Cmax ([1]; PO, 10.0 mg/kg): 178 nM
Tmax ([1]; PO, 10.0 mg/kg): 0.5 h
half-life ([1]; PO, 10.0 mg/kg): 2.12 h

Compound: CCCN1CC[C@H](Nc2cnc([C@@H]3c4[nH]c5ccccc5c4C[C@@H](C)N3C34CC(C3)C4)cn2)C1 [Compound 54, 5-((1S,3R)-2-(bicyclo[1.1.1]pentan-1-yl)-3-methyl-2,3,4,9-tetrahydro-1H-pyrido[3,4-b]indol-1-yl)-N—((S)-1-propylpyrrolidin-3-yl)pyrazin-2-amine]
IC50 (MCF7): ≤ 25 nM

Compound: C[C@@H]1Cc2c([nH]c3ccccc23)[C@@H](c2ccc(N[C@H]3CCN(CCCF)C3)cn2)N1C12CC(C1)C2 [Compound 55, 6-((1S,3R)-2-(bicyclo[1.1.1]pentan-1-yl)-3-methyl-2,3,4,9-tetrahydro-1H-pyrido[3,4-b]indol-1-yl)-N—((S)-1-(3-fluoropropyl)pyrrolidin-3-yl)pyridin-3-amine]
IC50 (MCF7): ≥ 250 nM

Compound: C[C@@H]1Cc2c([nH]c3ccccc23)[C@@H](c2cnc(NC3CN(CCCF)C3)nc2)N1C12CC(C1)C2 [Compound 57, 5-((1R,3R)-2-(bicyclo[1.1.1]pentan-1-yl)-3-methyl-2,3,4,9-tetrahydro-1H-pyrido[3,4-b]indol-1-yl)-N-(1-(3-fluoropropyl)azetidin-3-yl)pyrimidin-2-amine]
IC50 (MCF7): 25 to 250 nM

Compound: C[C@@H]1Cc2c([nH]c3ccccc23)[C@@H](c2ncc(OC3CN(CCCF)C3)cn2)N1C12CC(C1)C2 [Compound 61, (1S,3R)-2-(bicyclo[1.1.1]pentan-1-yl)-1-(5-((1-(3-fluoropropyl)azetidin-3-yl)oxy)pyrimidin-2-yl)-3-methyl-2,3,4,9-tetrahydro-1H-pyrido[3,4-b]indole]
IC50 (MCF7): ≥ 250 nM

Compound: C=CCN1CC(Nc2ccc([C@@H]3c4[nH]c5ccccc5c4C[C@@H](C)N3C34CC(C3)C4)cc2)C1 [Compound 64, 1-allyl-N-(4-((1R,3R)-2-(bicyclo[1.1.1]pentan-1-yl)-3-methyl-2,3,4,9-tetrahydro-1H-pyrido[3,4-b]indol-1-yl)phenyl)azetidin-3-amine]
IC50 (MCF7): ≤ 25 nM

Compound: C[C@@H]1Cc2c([nH]c3ccccc23)[C@@H](c2ccc(NC3CN(CC(C)(F)F)C3)cc2)N1C12CC(C1)C2 [Compound 88, N-(4-((1R,3R)-2-(bicyclo[1.1.1]pentan-1-yl)-3-methyl-2,3,4,9-tetrahydro-1H-pyrido[3,4-b]indol-1-yl)phenyl)-1-(2,2-difluoropropyl)azetidin-3-amine]
IC50 (MCF7): 25 to 250 nM

Compound: COc1cc(NC2CN(CCCF)C2)cc(F)c1[C@@H]1c2[nH]c3ccccc3c2C[C@@H](C)N1C12CC(C1)C2 [Compound 92, N-(4-((1R,3R)-2-(bicyclo[1.1.1]pentan-1-yl)-3-methyl-2,3,4,9-tetrahydro-1H-pyrido[3,4-b]indol-1-yl)-3-fluoro-5-methoxyphenyl)-1-(3-fluoropropyl)azetidin-3-amine]
IC50 (MCF7): ≤ 25 nM

Compound: COc1cc(NC2CN(CCCF)C2)cnc1[C@@H]1c2[nH]c3ccccc3c2C[C@@H](C)N1C12CC(C1)C2 [Compound 94, 6-((1S,3R)-2-(bicyclo[1.1.1]pentan-1-yl)-3-methyl-2,3,4,9-tetrahydro-1H-pyrido[3,4-b]indol-1-yl)-N-(1-(3-fluoropropyl)azetidin-3-yl)-5-methoxypyridin-3-amine]
IC50 (MCF7): ≥ 250 nM

Second part, the compound after the results:

IC50 (MCF7): 25 to 250 nM
Kp at 2 h [1]: 7.07
AUC(0-t) ([1]; IV, 3.0 mg/kg): 2.93 µM·h
clearance ([1]; IV, 3.0 mg/kg): 30.2 mL/min/kg
half-life ([1]; IV, 3.0 mg/kg): 9.1 h
Vd ([1]; IV, 3.0 mg/kg): 16.7 L/kg
bioavailability [1]: 49.5%
AUC(0-t) ([1]; PO, 10.0 mg/kg): 4.84 µM·h
Cmax ([1]; PO, 10.0 mg/kg): 610 nM
Tmax ([1]; PO, 10.0 mg/kg): 1 h
half-life ([1]; PO, 10.0 mg/kg): 9.4 h
Compound: C[C@@H]1Cc2c([nH]c3ccccc23)[C@@H](c2c(F)cc(O[C@@H]3CCN(CCCF)C3)cc2F)N1C12CC(C1)C2 (single isomer, unassigned) [Compound 5]

IC50 (MCF7): ≤ 25 nM
Kp at 2 h [1]: 4.42
AUC(0-t) ([1]; IV, 3.0 mg/kg): 2.93 µM·h
clearance ([1]; IV, 3.0 mg/kg): 30.2 mL/min/kg
half-life ([1]; IV, 3.0 mg/kg): 9.1 h
Vd ([1]; IV, 3.0 mg/kg): 16.7 L/kg
bioavailability [1]: 49.5%
AUC(0-t) ([1]; PO, 10.0 mg/kg): 4.84 µM·h
Cmax ([1]; PO, 10.0 mg/kg): 611 nM
Tmax ([1]; PO, 10.0 mg/kg): 1 h
half-life ([1]; PO, 10.0 mg/kg): 9.4 h
Compound: C[C@@H]1Cc2c([nH]c3ccccc23)[C@@H](c2c(F)cc(O[C@H]3CCN(CCCF)C3)cc2F)N1C12CC(C1)C2 (single isomer, unassigned) [Compound 6]

IC50 (MCF7): ≥ 250 nM
Compound: C[C@@H]1Cc2c([nH]c3ccccc23)[C@@H](c2ccc(N3CC(NCCCF)C3)cn2)N1C12CC(C1)C2 [Compound 49, 1-(6-((1S,3R)-2-(bicyclo[1.1.1]pentan-1-yl)-3-methyl-2,3,4,9-tetrahydro-1H-pyrido[3,4-b]indol-1-yl)pyridin-3-yl)-N-(3-fluoropropyl)azetidin-3-amine]

IC50 (MCF7): ≤ 25 nM
Compound: C[C@@H]1Cc2c([nH]c3ccccc23)[C@@H](c2c(F)cc(NC3CN(CCF)C3)cc2F)N1C12CC(C1)C2 [Compound 56, N-(4-((1R,3R)-2-(bicyclo[1.1.1]pentan-1-yl)-3-methyl-2,3,4,9-tetrahydro-1H-pyrido[3,4-b]indol-1-yl)-3,5-difluorophenyl)-1-(2-fluoroethyl)azetidin-3-amine]

IC50 (MCF7): ≥ 250 nM
Compound: C[C@@H]1Cc2c([nH]c3ccccc23)[C@@H](c2ncc(NC3CN(CCCF)C3)cn2)N1C12CC(C1)C2 [Compound 60, 2-((1S,3R)-2-(bicyclo[1.1.1]pentan-1-yl)-3-methyl-2,3,4,9-tetrahydro-1H-pyrido[3,4-b]indol-1-yl)-N-(1-(3-fluoropropyl)azetidin-3-yl)pyrimidin-5-amine]

IC50 (MCF7): ≤ 25 nM
Compound: C#CCN1CC(Nc2ccc([C@@H]3c4[nH]c5ccccc5c4C[C@@H](C)N3C34CC(C3)C4)cc2)C1 [Compound 65, N-(4-((1R,3R)-2-(bicyclo[1.1.1]pentan-1-yl)-3-methyl-2,3,4,9-tetrahydro-1H-pyrido[3,4-b]indol-1-yl)phenyl)-1-(prop-2-yn-1-yl)azetidin-3-amine]

IC50 (MCF7): ≤ 25 nM
Compound: C[C@@H]1Cc2c([nH]c3ccccc23)[C@@H](c2ccc(N[C@@H]3CN(CCCF)C[C@@H]3O)cc2)N1C12CC(C1)C2 [Compound 78, (3S,4R)-4-((4-((1R,3R)-2-(bicyclo[1.1.1]pentan-1-yl)-3-methyl-2,3,4,9-tetrahydro-1H-pyrido[3,4-b]indol-1-yl)phenyl)amino)-1-(3-fluoropropyl)pyrrolidin-3-ol]

IC50 (MCF7): ≤ 25 nM
Compound: CCCCN1C[C@@H](F)[C@H](Nc2ccc([C@@H]3c4[nH]c5ccccc5c4C[C@@H](C)N3C34CC(C3)C4)cc2)C1 [Compound 84, (3R,4R)—N-(4-((1R,3R)-2-(bicyclo[1.1.1]pentan-1-yl)-3-methyl-2,3,4,9-tetrahydro-1H-pyrido[3,4-b]indol-1-yl)phenyl)-1-butyl-4-fluoropyrrolidin-3-amine]

IC50 (MCF7): ≤ 25 nM
Compound: CCCN1C[C@@H](F)[C@H](Nc2ccc([C@@H]3c4[nH]c5ccccc5c4C[C@@H](C)N3C34CC(C3)C4)cc2)C1 [Compound 87, (3R,4R)—N-(4-((1R,3R)-2-(bicyclo[1.1.1]pentan-1-yl)-3-methyl-2,3,4,9-tetrahydro-1H-pyrido[3,4-b]indol-1-yl)phenyl)-4-fluoro-1-propylpyrrolidin-3-amine]

IC50 (MCF7): 25 to 250 nM
Compound: CCCN1C[C@@H](Nc2ccc([C@@H]3c4[nH]c5ccccc5c4C[C@@H](C)N3C34CC(C3)C4)cc2)C[C@@H]1C [Compound 89, (3S,5S)—N-(4-((1R,3R)-2-(bicyclo[1.1.1]pentan-1-yl)-3-methyl-2,3,4,9-tetrahydro-1H-pyrido[3,4-b]indol-1-yl)phenyl)-5-methyl-1-propylpyrrolidin-3-amine]

IC50 (MCF7): ≤ 25 nM
Compound: CCCNCC1CCN(c2ccc([C@@H]3c4[nH]c5ccccc5c4C[C@@H](C)N3C34CC(C3)C4)cc2)CC1 [Compound 93, N-((1-(4-((1R,3R)-2-(bicyclo[1.1.1]pentan-1-yl)-3-methyl-2,3,4,9-tetrahydro-1H-pyrido[3,4-b]indol-1-yl)phenyl)piperidin-4-yl)methyl)propan-1-amine]

IC50 (MCF7): ≤ 25 nM
Compound: C[C@]12CC[C@@H]3c4ccc(O)cc4C[C@@H](CCCCCCCCC[S+]([O-])CCCC(F)(F)C(F)(F)F)[C@H]3[C@@H]1CC[C@@H]2O (stereo partly drawn) [fulvestrant, reference compound]
